According to US5684013A, “Tricyclic compounds useful for inhibition of g-protein function and for treatment of proliferative diseases” (Schering Corporation, priority 1995, dated 1997):
“And” between values parts separate entries of the source, which are not always exact repeats. Equal values may be shown once.

Target: T1, farnesyl protein transferase (FPT) (Rattus norvegicus, UniProt Q02293+Q04631)
T1 construct: were partially purified from rat brain by ammonium sulfate fractionation; from tissue; host or cells: rat brain
Assay: In vitro enzyme assay: inhibition of farnesyl protein transferase (FPT), Ras-CVLS farnesylation
Format: biochemical
Settings: 14 μM; read-out: FPT inhibition (percent)
From the text: 1. In vitro enzyme assays: Inhibition of farnesyl protein transferase and geranylgeranyl protein transferase.
Both farnesyl protein transferase (FPT) and geranylgeranyl protein transferase (GGPT) I were partially purified from rat brain by ammonium sulfate fractionation followed by Q-Sepharose (Pharmacia, Inc.) anion exchange chromatography essentially as described by Yokoyama et al (Yokoyama, K., et al., (1991), A protein geranylgeranyltransferase from bovine brain: Implications for protein prenylation specificity, Proc. Natl. Acad. Sci USA 88: 5302-5306, the disclosure of which is incorporated herein by reference thereto). Human farnesyl protein transferase was also expressed in E. coli, using cDNA clones encoding both the a and b subunits. The methods used were similar to those published (Omer, C. et al., (1993), Characterization of recombinant human farnesyl protein transferase: Cloning, expression, farnesyl diphosphate binding, and functional homology with yeast prenyl-protein transferases, Biochemistry 32:5167-5176). Human farnesyl protein transferase was partially-purified from the soluble protein fraction of E. coli as described above. the tricyclic farnesyl protein transferase inhibitors disclosed herein inhibited both human and rat enzyme with similar potencies. Two forms of val^12 -Ha-Ras protein were prepared as substrates for these enzymes, differing in their carboxy terminal sequence. One form terminated in cysteine-valine-leucine-serine (Ras-CVLS) the other in cystein-valine-leucine-leucine (Ras-CVLL). Ras-CVLS is a substrate for the farnesyl protein transferase while Ras-CVLL is a substrate for geranylgeranyl protein transferase I. The cDNAs encoding these proteins were constructed so that the proteins contain an amino-terminal extension of 6 histidine residues. Both proteins were expressed in Escherichia coli and purified using metal chelate affinity chromatography. The radiolabelled isoprenyl pyrophosphate substrates, [^3 H]farnesyl pyrophosphate and [^3 H]geranylgeranyl pyrophosphate, were purchased from DuPont/New England Nuclear.
Several methods for measuring farnesyl protein transferase activity have been described (Reiss et al 1990, Cell 62: 81; Schaber et al 1990, J. Biol. Chem. 265: 14701; Manne et al 1990, PNAS 87: 7541; and Barbacid & Manne 1993, U.S. Pat. No. 5,185,248). The activity was assayed by measuring the transfer of [^3 H]farnesyl from [^3 H]farnesyl pyrophosphate to Ras-CVLS using conditions similar to those described by Reiss et al. 1990 (Cell 62: 81) The reaction mixture contained 40 mM Hepes, pH 7.5; 20 mM magnesium chloride; 5 mM dithiothreitol; 0.25 μM [^3 H]farnesyl pyrophosphate; […] Q-Sepharose-purified farnesyl protein transferase; the indicated concentration of tricyclic compound or dimethylsulfoxide (DMSO) vehicle control (5% DMSO final); and […] Ras-CVLS in a total volume of […]. The reaction was allowed to proceed for 30 minutes at room temperature and then stopped with 0.5 ml of 4% sodium dodecyl sulfate (SDS) followed by 0.5 ml of cold 30% trichloracetic acid (TCA). Samples were allowed to sit on ice for 45 minutes and precipitated Ras protein was then collected on GF/C filter paper mats using a Brandel cell harvester. Filter mats were washed once with 6% TCA, 2% SDS and radioactivity was measured in a Wallac 1204 Betaplate BS liquid scintillation counter. Percent inhibition was calculated relative to the DMSO vehicle control.

Structure (SMILES) | inhibition at 14 µM
O=C(Cc1ccncc1)N1CC/C(=C2/c3ccc(Cl)cc3CCc3cccnc32)C1 [Compound E-3A] | 11%
O=C(Cc1ccncc1)N1CC/C(=C2\c3ccc(Cl)cc3CCc3cccnc32)C1 [Compound E-3M] | 37%

Same assay, conditions: 15 μM; read-out: FPT inhibition (percent)

Structure (SMILES) | inhibition at 15 µM
CS(=O)(=O)N1CCC/C(=C2\c3ccc(Cl)cc3CCc3cccnc32)C1 [Compound E-2M] | 15%

Same assay, conditions: 42 μM; read-out: FPT inhibition (percent)

Structure (SMILES) | inhibition at 42 µM
COc1ccc(S(=O)(=O)N2CCC/C(=C3\c4ccc(Cl)cc4CCc4cccnc43)C2)cc1 [Compound E-2G] | 33%

Same assay, conditions: 50 μM; read-out: FPT inhibition (percent)

Structure (SMILES) | inhibition at 50 µM
O=C(c1ccco1)N1CC/C(=C2/c3ccc(Cl)cc3CCc3cccnc32)C1 [Compound E-3B] | 33%

Same assay, conditions: Table 2

Structure (SMILES) | FPT IC50
O=C(c1ccccc1)N1CCC/C(=C2\c3ccc(Cl)cc3CCc3cccnc32)C1 [Compound E-7] | inactive

Same assay, conditions: Table 2; read-out: FPT IC50

Structure (SMILES) | IC50
O=C(CSc1ccncc1)N1CC/C(=C2/c3ccc(Cl)cc3CCc3cccnc32)C1 [Compound E-3] | 6.9 µM
CC(=O)Nc1ccc(S(=O)(=O)N2CCC/C(=C3/c4ccc(Cl)cc4CCc4cccnc43)C2)cc1 [Compound E-2T] | 33.5 µM
O=S(=O)(c1cccs1)N1CC/C(=C2\c3ccccc3CCc3cccnc32)C1 [Compound E-1B] | 3.3 µM
O=C(CCc1ccccc1)N1CCC/C(=C2/c3ccc(Cl)cc3CCc3cccnc32)C1 [Compound E-3L] | > 45 µM
COc1ccc(S(=O)(=O)N2CCC/C(=C3/c4ccc(Cl)cc4CCc4cccnc43)C2)cc1 [Compound E-2R] | > 42 µM
O=S(=O)(c1ccccc1)N1CCC/C(=C2\c3ccc(Cl)cc3CCc3cc(Br)cnc32)C1 [Compound E-2D] | 0.58 µM
O=C(Nc1ccccc1)N1CCC/C(=C2\c3ccc(Cl)cc3CCc3cccnc32)C1 [Compound E-5] | > 14 µM
O=C(Cc1cccnc1)N1CCCC(C2c3ccc(Cl)cc3CCc3cccnc32)C1 (centres unmarked) [Compound E-3C] | 8 µM
O=C(Sc1ccccc1)N1CCC/C(=C2\c3ccc(Cl)cc3CCc3cccnc32)C1 [Compound E-6] | > 13 µM
O=C(Cc1cccnc1)N1CCC/C(=C2/c3ccc(Cl)cc3CCc3cccnc32)C1 [Compound E-3J] | 5.1 µM
O=S(=O)(c1cccs1)N1CCC/C(=C2/c3ccc(Cl)cc3CCc3cccnc32)C1 [Compound E-1J] | 4.8 µM
O=S(=O)(Cc1ccccc1)N1CCC/C(=C2\c3ccc(Cl)cc3CCc3cccnc32)C1 [Compound E-2N] | > 13 µM
O=S(=O)(c1ccccc1)N1CCC/C(=C2/c3ccc(Cl)cc3CCc3cccnc32)C1 [Compound E-2P] | 3.3 µM
O=S(=O)(c1cccnc1)N1CCC/C(=C2\c3ccc(Cl)cc3CCc3cccnc32)C1 [Compound E-4] | 0.97 µM
O=C(CSc1ccncc1)N1CC/C(=C2\c3ccc(Cl)cc3CCc3cccnc32)C1 [Compound E-3N] | 4.2 µM
O=S(=O)(c1ccccc1)N1CC/C(=C2\c3ccccc3CCc3cccnc32)C1 [Compound E-2C] | 2.8 µM
O=C(Cc1ccncc1)N1CCC/C(=C2/c3ccc(Cl)cc3CCc3cccnc32)C1 [Compound E-3K] | > 14 µM
O=S(=O)(c1cccnc1)N1CCCC(C2c3ccc(Cl)cc3C=Cc3cccnc32)C1 (centres unmarked) [Compound E-4A] | 7.5 µM

Structure (SMILES) | IC50
O=C(CCc1ccccc1)N1CCC/C(=C2\c3ccc(Cl)cc3CCc3cccnc32)C1 [Compound E-3G] | > 45 µM
O=S(=O)(c1ccc(F)cc1)N1CCC/C(=C2\c3ccc(Cl)cc3CCc3cccnc32)C1 [Compound E-2H] | 1.34 µM
O=C(Cc1cccnc1)N1CCC/C(=C2\c3ccc(Cl)cc3CCc3cccnc32)C1 [Compound E-3E] | 7.8 µM
Cc1cc(C)c(S(=O)(=O)N2CCC/C(=C3\c4ccc(Cl)cc4CCc4cccnc43)C2)c(C)c1 [Compound E-2L] | > 12 µM
CS(=O)(=O)N1CCCC(C2c3ccc(Cl)cc3C=Cc3cccnc32)C1 (centres unmarked) [Compound E-2V] | 44 µM
O=C(Cc1ccncc1)N1CCC/C(=C2\c3ccc(Cl)cc3CCc3cccnc32)C1 [Compound E-3F] | > 14 µM
O=S(=O)(c1cccnc1)N1CCC/C(=C2/c3ccc(Cl)cc3CCc3cccnc32)C1 [Compound E-4B] | 8.8 µM
O=C(c1cccnc1)N1CCC/C(=C2\c3ccc(Cl)cc3CCc3cccnc32)C1 [Compound E-7A] | > 14.4 µM
CC(=O)Nc1ccc(S(=O)(=O)N2CCC/C(=C3\c4ccc(Cl)cc4CCc4cccnc43)C2)cc1 [Compound E-2J] | > 39.4 µM
O=[N+]([O-])c1ccc(S(=O)(=O)N2CCC/C(=C3/c4ccc(Cl)cc4CCc4cccnc43)C2)cc1 [Compound E-2Q] | > 40 µM
O=C(Cc1ccncc1)N1CCCC(C2c3ccc(Cl)cc3CCc3cccnc32)C1 (centres unmarked) [Compound E-3D] | > 13.9 µM
O=C(NCc1ccc(S(=O)(=O)N2CCC/C(=C3/c4ccc(Cl)cc4CCc4cccnc43)C2)s1)c1ccccc1 [Compound E-1K] | > 34 µM
O=S(=O)(c1ccc(F)cc1)N1CCC/C(=C2/c3ccc(Cl)cc3CCc3cccnc32)C1 [Compound E-2S] | > 43 µM
Cc1ccc(S(=O)(=O)N2CCC/C(=C3\c4ccc(Cl)cc4CCc4cccnc43)C2)cc1 [Compound E-2K] | > 13 µM
O=S(=O)(c1ccccc1)N1CCCC(C2c3ccc(Cl)cc3C=Cc3cccnc32)C1 (centres unmarked) [Compound E-2U] | 6.4 µM
O=S(=O)(c1cccs1)N1CC/C(=C2\c3ccc(Cl)cc3CCc3cccnc32)C1 [Compound E-1] | < 0.45 µM and 0.52 µM
O=S(=O)(c1cccs1)N1CCC/C(=C2\c3ccc(Cl)cc3CCc3cc(Br)cnc32)C1 [Compound E-1D] | 0.84 µM
O=C(Cc1ccccc1)N1CCC/C(=C2\c3ccc(Cl)cc3CCc3cccnc32)C1 [Compound E-7B] | > 14 µM

Tested on: T24-BAG4 human bladder carcinoma cells
Assay: Cell Mat Assay: inhibition of tumor cell growth
Format: cell-based
Settings: 336 h, tIC50, 14 d colony formation
Method: (§1) Normal human HEPM fibroblasts were planted in 3.5 cm dishes at a density of 5×10^4 cells/dish in 2 ml growth medium, and incubated for 3-5 d to achieve confluence. Medium was aspirated from each dish and the indicator tumor cells, T24-BAG4 human bladder carcinoma cells expressing an activated H-ras gene, were planted on top of the fibroblast monolayer at a density of 2×10^3 cells/dish in 2 ml growth medium, and allowed to attach overnight. Compound-induced colony inhibition was assayed by addition of serial dilutions of compound directly to the growth medium 24 h after tumor cell planting, and incubating cells for an additional 14 d to allow colony formation. Assays were terminated by rinsing monolayers twice with phosphate-buffered saline (PBS), fixing the monolayers with a 1% glutaraldehyde solution in PBS, then visualizing tumor cells by staining with X-Gal (Price, J., et al., Lineage analysis in the vertebrate nervous system by retrovirus-mediated gene transfer, Proc. Natl. Acad. Sci. 84, 156-160(1987)). In the colony inhibition assay, compounds were evaluated on the basis of two IC50 values: the concentration of drug required to prevent the increase in tumor cell number by 50% (tIC50) and the concentration of drug required to reduce the density of cells comprising the cell mat by 50% (mIC50). Both IC50 values were obtained by determining the density of tumor cells and mat cells by visual inspection and enumeration of cells per colony and the number of colonies under the microscope. The therapeutic index of the compound was quantitatively expressed as the ratio of mIC50 /tIC50, with values greater than one indicative of tumor target specificity.

Structure (SMILES) | IC50
O=S(=O)(c1ccc(F)cc1)N1CCC/C(=C2\c3ccc(Cl)cc3CCc3cccnc32)C1 [Compound E-2H] | 12.5 µM

Tested on: Normal human HEPM fibroblasts
Assay: Cell Mat Assay: inhibition of normal cell growth (cell mat)
Format: cell-based
Settings: Fibroblast, mIC50, normal cell monolayer
Method: as §1

Structure (SMILES) | IC50
O=S(=O)(c1ccc(F)cc1)N1CCC/C(=C2\c3ccc(Cl)cc3CCc3cccnc32)C1 [Compound E-2H] | > 25 µM
